# According to patent publication US20240327354A1, “GRAM-NEGATIVE BACTERIA EFFLUX PUMP INHIBITORS” (INSTITUT NATIONAL DE LA SANTÉ ET DE LA RECHERCHE MÉDICALE, priority 2021, published 2024):
# Tests used:
# K. pneumoniae ATCC43816 = test: Assay 4: boosting of antibiotic activity by EPI example 37 in K. pneumoniae ATCC43816; assay type: cell-based, Klebsiella pneumoniae; conditions: MIC of the named antibiotic boosted by 100 μM example 37
# Source text: (§1) Escherichia coli BW25113 (CGSC 7636) and its derivatives E. coli ΔtolC (JW5503-1, ΔtolC732::kan, CGSC 11430), E. coli ΔacrA (JW0452-3, ΔacrA748::kan, CGSC 11843) and E. coli ΔacrB (JW0451-2, ΔacrB747::kan, CGSC 8609) were obtained from E. coli Genetic Stock Center (CGSC, New Haven, Connecticut) and originated from the Keio Collection (Baba T et al, Mol Sys Biol, 2006). Klebsiella pneumoniae (LMG 2095/ATCC 13883) and K. pneumoniae (ATCC43816), Pseudomonas aeruginosa (PAO1), Acinetobacter baumannii (LMG 1025, ATCC 17978), were obtained from ATCC or BCCM/LMG Bacteria Collection. All bacteria were grown and tested in cation-adjusted Mueller-Hinton broth (CAMHB; BD Difco) at 37° C. For conservation, log phase bacteria were frozen (−80° C.) in CAMHB supplemented with 15% glycerol.
# (§2) Measurement of the Impact of EPI Example 37 on the Boosting of Antibiotic Activity in E. coli, A. baumannii, K. pneumoniae and P. aeruginosa.
# (§3) Bacterial suspensions were then prepared in CAMHB from a growing pre-culture, (E. coli [OD600=0.001], A. baumannii [OD600=0.001], K. pneumoniae [OD600=0.001] and P. aeruginosa [OD600=0.001]), and added to the microplate using a ViaFill. Microplate containing bacterial cultures were then grown (5 h or 24 h, 37° C.) and bacterial viability determined by either resazurin reduction or OD600.
# K. pneumoniae ATCC13883 = test: Assay 4: boosting of antibiotic activity by EPI example 37 in K. pneumoniae ATCC13883; assay type: cell-based, Klebsiella pneumoniae
# Source text: as §1, §2, §3
# P. aeruginosa PAO1 = test: Assay 4: boosting of antibiotic activity by EPI example 37 in P. aeruginosa; assay type: cell-based, Pseudomonas aeruginosa; conditions: MIC of the named antibiotic boosted by 100 μM example 37
# Source text: as §1, §2, §3
# A. baumannii LMG = test: Assay 4: boosting of antibiotic activity by EPI example 37 in A. baumannii; assay type: cell-based, Acinetobacter baumannii; conditions: MIC of the named antibiotic boosted by 100 μM example 37
# Source text: as §1, §2, §3
# E. coli BW25113 = test: Assay 4: boosting of antibiotic activity by EPI example 37 in E. coli; assay type: cell-based, Escherichia coli; conditions: MIC of the named antibiotic boosted by 100 μM example 37
# Source text: as §1, §2, §3
# [1] = system: A. baumannii LMG 1025 (ATCC 17978); test: Assay 2: growth inhibition of A. baumannii by sub-inhibitory chloramphenicol in combination with examples (resazurin reduction); assay type: cell-based; conditions: Acinetobacter baumannii; antibiotic alone, no EPI
# [2] = system: A. baumannii LMG 1025 (ATCC 17978); test: Assay 3: growth inhibition of A. baumannii by sub-inhibitory novobiocin in combination with examples (resazurin reduction); assay type: cell-based; conditions: Acinetobacter baumannii; antibiotic alone, no EPI
# [3] = MIC of the named antibiotic boosted by 100 μM example 37
SMILES,K. pneumoniae ATCC43816 Fold Boosted MIC By 100 μM example 37 (K. pneumoniae ATCC43816),K. pneumoniae ATCC13883 Fold Boosted MIC By 100 μM example 37 (K. pneumoniae ATCC13883; [3]),P. aeruginosa PAO1 Fold Boosted MIC By 100 μM example 37 (P. aeruginosa PAO1),A. baumannii LMG Fold Boosted MIC By 100 μM example 37 (A. baumannii LMG),E. coli BW25113 Fold Boosted MIC By 100 μM example 37 (E. coli BW25113),MIC90 [1] [µg/mL],K. pneumoniae ATCC13883 Fold Boosted MIC By 100 μM example 37 (K. pneumoniae ATCC13883; 100 μM example 37),MIC90 [2] [µg/mL]
"CC[C@H]1OC(=O)[C@H](C)[C@@H](O[C@H]2C[C@@](C)(OC)[C@@H](O)[C@H](C)O2)[C@H](C)[C@@H](O[C@@H]2O[C@H](C)C[C@H](N(C)C)[C@H]2O)[C@](C)(O)C[C@@H](C)CN(C)[C@H](C)[C@@H](O)[C@]1(C)O [Azithromycin (AZY), Azithromycin]",** (** = 4-7.9 fold),** (** = 4-7.9 fold),*** (*** = 8 fold +),–,–,–,–,–
"CC(=O)NC[C@H]1CN(c2ccc(N3CCOCC3)c(F)c2)C(=O)O1 [Linezolid (LIN), Linezolid]",*** (*** = 8 fold +),*** (*** = 8 fold +),* (* = 2-3.9 fold),* (* = 2-3.9 fold),*** (*** = 8 fold +),–,–,–
"[H]/N=C(/N)N[C@H]1[C@H](O)[C@@H](O)[C@H](O[C@@H]2O[C@@H](C)[C@](O)(C=O)[C@H]2O[C@@H]2O[C@@H](CO)[C@H](O)[C@@H](O)[C@@H]2NC)[C@@H](N/C(N)=N\[H])[C@@H]1O [Streptomycin (STP), Streptomycin]",–,–,* (* = 2-3.9 fold),–,–,–,–,–
"CCN1CCN(C(=O)N[C@@H](C(=O)N[C@@H]2C(=O)N3[C@@H]2SC(C)(C)[C@@H]3C(=O)O)c2ccccc2)C(=O)C1=O [Piperacillin (PPC), Piperacillin]",* (* = 2-3.9 fold),* (* = 2-3.9 fold),–,–,** (** = 4-7.9 fold),–,–,–
O=C(N[C@H](CO)[C@H](O)c1ccc([N+](=O)[O-])cc1)C(Cl)Cl [chloramphenicol],* (* = 2-3.9 fold),** (** = 4-7.9 fold),–,* (* = 2-3.9 fold),*** (*** = 8 fold +),25 to 100,–,–
"O=C(O)c1cn(C2CC2)c2cc(N3CCNCC3)c(F)cc2c1=O [Ciprofloxacin (CIP), Ciprofloxacin]",*** (*** = 8 fold +),*** (*** = 8 fold +),–,–,*** (*** = 8 fold +),–,–,–
"CC(=O)O[C@H]1C[C@@]2(C)[C@@H](C[C@@H](O)[C@H]3[C@@]4(C)CC[C@@H](O)[C@@H](C)[C@@H]4CC[C@@]32C)/C1=C(\CCC=C(C)C)C(=O)O [Fusidic Acid (FUS), Fusidic Acid]",** (** = 4-7.9 fold),–,–,–,*** (*** = 8 fold +),–,2-4 fold,–
"CC[C@H]1OC(=O)[C@H](C)[C@@H](O[C@H]2C[C@@](C)(OC)[C@@H](O)[C@H](C)O2)[C@H](C)[C@@H](O[C@@H]2O[C@H](C)C[C@H](N(C)C)[C@H]2O)[C@](C)(O)C[C@@H](C)C(=O)[C@H](C)[C@@H](O)[C@]1(C)O [Erythromycin (ERY), Erythromycin]",** (** = 4-7.9 fold),*** (*** = 8 fold +),–,–,** (** = 4-7.9 fold),–,–,–
"Oc1cc(Cl)ccc1Oc1ccc(Cl)cc1Cl [Triclosan (TRC), Triclosan]",*** (*** = 8 fold +),*** (*** = 8 fold +),–,* (* = 2-3.9 fold),* (* = 2-3.9 fold),–,–,–
"CC1(C)S[C@@H]2[C@H](NC(=O)[C@H](N)c3ccccc3)C(=O)N2[C@H]1C(=O)O [Ampicillin (AMP), Ampicillin]",–,–,–,–,* (* = 2-3.9 fold),–,–,–
CO[C@@H]1[C@@H](OC(N)=O)[C@@H](O)[C@H](Oc2ccc3c(O)c(NC(=O)c4ccc(O)c(CC=C(C)C)c4)c(=O)oc3c2C)OC1(C)C [novobiocin],** (** = 4-7.9 fold),*** (*** = 8 fold +),–,–,*** (*** = 8 fold +),–,–,12.5
"CN(C)[C@@H]1C(O)=C(C(N)=O)C(=O)[C@@]2(O)C(O)=C3C(=O)c4c(O)cccc4[C@@](C)(O)[C@H]3C[C@@H]12 [Tetracycline (TET), Tetracycline]",–,* (* = 2-3.9 fold),–,–,* (* = 2-3.9 fold),–,–,–
"CO/N=C(\C(=O)N[C@@H]1C(=O)N2C(C(=O)[O-])=C(C[N+]3(C)CCCC3)CS[C@H]12)c1csc(N)n1 [Cefepime (CEP), Cefepime]",* (* = 2-3.9 fold),–,–,–,–,–,–,–
"Cc1onc(-c2ccccc2)c1C(=O)N[C@@H]1C(=O)N2[C@@H]1SC(C)(C)[C@@H]2C(=O)O [Oxacillin (OXA), Oxacillin]",*** (*** = 8 fold +),*** (*** = 8 fold +),* (* = 2-3.9 fold),–,*** (*** = 8 fold +),–,–,–
